Assay results taken from patent US11878975B2, “Substituted indole compounds useful as TLR inhibitors” (BRISTOL-MYERS SQUIBB COMPANY, priority 2017, dated 2024).

Experiments:
Assay type in all cases: cell-based
human TLR7 = target: T1, human TLR7 (Homo sapiens, UniProt Q9NYK1); experiment: TLR7 inhibition reporter assay (HEK-Blue cells, SEAP reporter, gardiquimod stimulation); conditions: HEK-Blue cells overexpressing human TLR7, SEAP reporter, gardiquimod 7.5 μM
T1 construct: host or cells: HEK-Blue cells
T1 sequence (Q9NYK1 27-1049): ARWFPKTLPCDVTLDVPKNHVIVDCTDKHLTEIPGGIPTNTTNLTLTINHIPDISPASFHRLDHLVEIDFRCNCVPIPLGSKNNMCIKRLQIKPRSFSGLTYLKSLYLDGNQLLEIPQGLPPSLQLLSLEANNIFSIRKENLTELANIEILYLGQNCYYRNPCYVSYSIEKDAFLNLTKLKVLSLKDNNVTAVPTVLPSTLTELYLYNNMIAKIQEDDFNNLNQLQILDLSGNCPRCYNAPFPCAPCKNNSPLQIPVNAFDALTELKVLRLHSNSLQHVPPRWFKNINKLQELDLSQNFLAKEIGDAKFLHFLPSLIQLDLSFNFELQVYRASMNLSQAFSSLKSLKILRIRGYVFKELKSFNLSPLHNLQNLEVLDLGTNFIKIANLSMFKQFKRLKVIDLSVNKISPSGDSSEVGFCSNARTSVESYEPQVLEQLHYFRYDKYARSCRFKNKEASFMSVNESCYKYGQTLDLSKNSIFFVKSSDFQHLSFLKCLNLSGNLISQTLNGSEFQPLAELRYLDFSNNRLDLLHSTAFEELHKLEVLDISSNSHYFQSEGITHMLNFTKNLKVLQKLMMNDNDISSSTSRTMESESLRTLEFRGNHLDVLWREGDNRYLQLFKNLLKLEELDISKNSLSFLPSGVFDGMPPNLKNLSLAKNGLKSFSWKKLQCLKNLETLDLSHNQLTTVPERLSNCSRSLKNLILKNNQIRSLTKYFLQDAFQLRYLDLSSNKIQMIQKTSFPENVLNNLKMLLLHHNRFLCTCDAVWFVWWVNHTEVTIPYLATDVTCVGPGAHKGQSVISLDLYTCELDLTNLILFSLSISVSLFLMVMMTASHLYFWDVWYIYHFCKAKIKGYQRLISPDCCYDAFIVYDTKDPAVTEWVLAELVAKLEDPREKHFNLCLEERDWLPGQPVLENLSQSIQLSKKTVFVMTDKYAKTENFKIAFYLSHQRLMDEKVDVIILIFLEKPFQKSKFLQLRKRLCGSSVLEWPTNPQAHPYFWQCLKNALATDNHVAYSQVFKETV
In short: (§1)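 HEK-Blue cells with NF-κB/AP-1-driven SEAP reporter, pre-treated 30 min at room temperature with compound (0.05 nM-50 μM). Stimulants: gardiquimod 7.5 μM (TLR7), R848 15.9 μM (TLR8) or ODN2006 5 nM (TLR9). SEAP measured after 22 h at 37° C.; percent inhibition versus agonist-plus-DMSO and known-inhibitor wells.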

human TLR8 = target: T2, human TLR8 (Homo sapiens, UniProt Q9NR97); experiment: TLR8 inhibition reporter assay (HEK-Blue cells, SEAP reporter, R848 stimulation); conditions: HEK-Blue cells overexpressing human TLR8, SEAP reporter, R848 15.9 μM
T2 construct: host or cells: HEK-Blue cells
T2 sequence (Q9NR97 27-1041): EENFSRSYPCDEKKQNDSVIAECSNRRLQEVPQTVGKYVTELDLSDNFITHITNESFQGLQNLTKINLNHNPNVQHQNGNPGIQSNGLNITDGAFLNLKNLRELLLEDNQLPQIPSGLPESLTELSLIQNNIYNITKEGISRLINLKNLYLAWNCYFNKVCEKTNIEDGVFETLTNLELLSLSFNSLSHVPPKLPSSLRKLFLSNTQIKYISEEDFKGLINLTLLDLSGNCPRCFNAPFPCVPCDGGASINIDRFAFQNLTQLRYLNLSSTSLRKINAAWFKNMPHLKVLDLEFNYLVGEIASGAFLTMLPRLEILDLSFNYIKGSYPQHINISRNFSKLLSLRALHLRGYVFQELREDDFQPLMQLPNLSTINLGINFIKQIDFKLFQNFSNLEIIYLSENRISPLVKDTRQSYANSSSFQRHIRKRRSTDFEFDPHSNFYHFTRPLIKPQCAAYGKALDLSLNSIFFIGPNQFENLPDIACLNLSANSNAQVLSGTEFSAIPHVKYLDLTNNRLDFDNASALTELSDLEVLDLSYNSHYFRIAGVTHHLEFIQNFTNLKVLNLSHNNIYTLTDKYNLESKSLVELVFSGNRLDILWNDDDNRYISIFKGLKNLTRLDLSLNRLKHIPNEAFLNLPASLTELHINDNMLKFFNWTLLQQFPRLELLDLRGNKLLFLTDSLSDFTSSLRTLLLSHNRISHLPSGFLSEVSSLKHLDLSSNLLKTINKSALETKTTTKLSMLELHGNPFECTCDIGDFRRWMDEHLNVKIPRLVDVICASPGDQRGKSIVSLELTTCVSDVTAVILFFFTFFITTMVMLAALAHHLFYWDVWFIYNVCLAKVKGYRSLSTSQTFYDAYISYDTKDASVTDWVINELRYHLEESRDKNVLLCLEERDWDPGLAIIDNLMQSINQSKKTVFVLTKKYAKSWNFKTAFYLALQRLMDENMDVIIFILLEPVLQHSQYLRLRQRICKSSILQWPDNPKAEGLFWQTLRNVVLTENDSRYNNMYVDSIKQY
In short: as §1

human TLR9 = target: T3, human TLR9 (Homo sapiens, UniProt Q9NR96); experiment: TLR9 inhibition reporter assay (HEK-Blue cells, SEAP reporter, ODN2006 stimulation); conditions: HEK-Blue cells overexpressing human TLR9, SEAP reporter, ODN2006 5 nM
T3 construct: host or cells: HEK-Blue cells
T3 sequence (Q9NR96 26-1032): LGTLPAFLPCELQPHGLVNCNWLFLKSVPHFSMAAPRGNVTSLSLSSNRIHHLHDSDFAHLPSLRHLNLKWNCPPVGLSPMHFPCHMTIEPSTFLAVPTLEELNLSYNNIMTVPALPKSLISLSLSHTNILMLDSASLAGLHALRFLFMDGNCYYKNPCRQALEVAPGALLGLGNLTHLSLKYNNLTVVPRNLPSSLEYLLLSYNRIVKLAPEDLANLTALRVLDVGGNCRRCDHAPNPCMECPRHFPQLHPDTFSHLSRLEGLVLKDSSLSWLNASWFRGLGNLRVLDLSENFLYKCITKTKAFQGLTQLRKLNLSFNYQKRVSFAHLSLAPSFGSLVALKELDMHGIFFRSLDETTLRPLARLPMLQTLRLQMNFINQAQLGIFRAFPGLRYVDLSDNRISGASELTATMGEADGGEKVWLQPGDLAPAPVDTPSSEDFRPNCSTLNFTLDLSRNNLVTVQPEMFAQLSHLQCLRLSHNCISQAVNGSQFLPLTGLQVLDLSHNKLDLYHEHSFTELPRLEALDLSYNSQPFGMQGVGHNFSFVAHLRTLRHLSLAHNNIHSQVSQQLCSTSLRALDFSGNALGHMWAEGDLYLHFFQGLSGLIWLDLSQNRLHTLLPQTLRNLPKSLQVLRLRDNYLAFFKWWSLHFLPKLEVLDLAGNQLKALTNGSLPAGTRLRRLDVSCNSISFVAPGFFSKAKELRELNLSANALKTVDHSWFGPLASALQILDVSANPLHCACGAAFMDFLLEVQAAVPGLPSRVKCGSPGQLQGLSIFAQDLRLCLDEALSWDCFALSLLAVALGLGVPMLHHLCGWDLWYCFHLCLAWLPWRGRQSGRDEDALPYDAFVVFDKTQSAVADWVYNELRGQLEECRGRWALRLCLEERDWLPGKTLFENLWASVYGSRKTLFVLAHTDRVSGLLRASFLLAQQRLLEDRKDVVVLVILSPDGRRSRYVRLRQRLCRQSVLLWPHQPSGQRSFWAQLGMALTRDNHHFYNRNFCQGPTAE
In short: as §1

Row | Compound | IC50 (human TLR7) [nM] | IC50 (human TLR8) [nM] | IC50 (human TLR9) [nM]
1 | COc1cc(-c2[nH]c3ccc(C4CCC(N(C)C(C)C)C4)cc3c2C(C)C)cn2ncnc12 (single isomer, unassigned) [Example 275, N-isopropyl-3-(3-isopropyl-2-(8-methoxy-[1,2,4]triazolo[1,5-a]pyridin-6-yl)-1H-indol-5-yl)-N-methylcyclopentan-1-amine] | 0.86 | 0.23 | 1270
2 | COc1cc(-c2[nH]c3ccc(C4CC(NC5COC5)C4)cc3c2C(C)C)cn2ncnc12 (stereo not drawn) [Example 579] | 1 | 0.73 | 7410
3 | COc1cc(-c2[nH]c3ccc(C4CN(C(C)C)CCO4)cc3c2C(C)C)cn2ncnc12 (stereo not drawn) [Example 300] | 2 | 6.4 | 2500

Second part, the compound after the results:

Row | IC50 (human TLR7) [nM] | IC50 (human TLR8) [nM] | IC50 (human TLR9) [nM] | Compound
4 | 0.85 | 2.1 | 1440 | COc1cc(-c2[nH]c3ccc(C4CCC(N5CC6(COC6)C5)CC4)cc3c2C(C)C)cn2ncnc12 (stereo not drawn) [Example 80]
5 | 0.35 | 0.44 | 1680 | COc1cc(-c2[nH]c3ccc(C4CCC(N(C)CCS(C)(=O)=O)CC4)cc3c2C(C)C)cn2ncnc12 (stereo not drawn) [Example 150, 4-(3-isopropyl-2-(8-methoxy-[1,2,4]triazolo[1,5-a]pyridin-6-yl)-1H-indol-5-yl)-N-methyl-N-(2-(methylsulfonyl)ethyl)cyclohexanamine]
